Experimental data from US20090105202A1 (priority 2005, published 2009).
Read-outs that look alike come from different tables or passages of the source.

How the values were obtained:
[1] = test system: HCT116 cells; assay type: cell-based; design: unit not given here
[2] = test system: HCT116 cells; settings: read-out: IC50 (the drug concentration producing 50% inhibition of colony formation), drugs 72 hours, colonies counted after 8 days
Description: To test the effect of androsterone derivatives of this example, HCT116cells (colorectal carcinoma cells) were plated in 60 mm Petri dishes containing 2.7 ml of medium (modified McCoy's 5a medium containing 10% fetal bovine serum and 100 units/ml penicillin and 100 µg/ml streptomycin). The cells were incubated in a CO2 incubator at 37° C. for 5 hours for attachment to the bottom of Petri dishes. Drugs were made up fresh in medium at ten times the final concentration, and then 0.3 ml of tins stock solution was added to the 2.7 ml of medium containing 5% bovine calf serum (BCS) in the dish. The cells were then incubated with drugs for 72 hours at 37° C. At the end of incubation the drug-containing media were decanted, the dishes were rinsed with 4 ml of Hank's Balance Salt Solution (HBSS). […] The cell colonies stained with methylene blue (0.5% in ethanol) were counted using colony counter after incubation for 8 days for HCT116 cells.

Row | Structure (SMILES) | In vitro antitumor activity against HCT116 cells ([1]; 1 μM) | In vitro antitumor activity against HCT116 cells ([1]; 10 μM) | IC50 [2] | In vitro antitumor activity against HCT116 cells ([1]; 100 nM)
1 | C[C@]12CC[C@H](OC(=O)CCC(=O)OCc3ccc4c(c3)C(=O)c3ccccc3C4=O)C[C@@H]1CC[C@@H]1[C@@H]2CC[C@]2(C)C(=O)CC[C@@H]12 [compound 991120, 1-((3β,5α)-3-Hydroxyandrostan-17-one)-4-(2-(hydroxymethyl)anthraquinone)-succinate] | 100 | 0 |  | 
2 | O=c1[nH]cc(F)c(=O)[nH]1 [5-FU, reference compound] |  | 17.00 |  | 
3 | CC[C@@]1(OC(=O)COc2ccc(C(=O)O[C@H]3CC[C@@]4(C)[C@@H](CC[C@@H]5[C@@H]4CC[C@]4(C)C(=O)CC[C@@H]54)C3)cc2)C(=O)OCc2c1cc1n(c2=O)Cc2cc3ccccc3nc2-1 [compound 0103021, Camptothecin-20S-O-(4-carboxyphenoxyacetate) linked with epiandrosterone] |  |  | 3.5 nM | 
4 | CC[C@@]1(OC(=O)COc2ccc(C(=O)O[C@@H]3CC[C@@]4(C)[C@@H](CC[C@@H]5[C@@H]4CC[C@]4(C)C(=O)CC[C@@H]54)C3)cc2)C(=O)OCc2c1cc1n(c2=O)Cc2cc3ccccc3nc2-1 [compound 010216, Camptothecin-20S-O-(4-carboxyphenexyacetate) linked with androsterone] |  |  | 2.5 nM | 
5 | C[C@]12CC[C@H](OC(=O)c3ccc([N+](=O)[O-])o3)C[C@@H]1CC[C@@H]1[C@@H]2CC[C@]2(C)C(=O)CC[C@@H]12 [compound 991027, (3β,5α)-3-Hydroxyandrostan-17-one 5-nitro-2-furoate] | 0 | 0 |  | 4.00
6 | CC(ON=C1c2cc([N+](=O)[O-])cc([N+](=O)[O-])c2-c2c1ccc([N+](=O)[O-])c2[N+](=O)[O-])C(=O)O[C@H]1CC[C@@]2(C)[C@@H](CC[C@@H]3[C@@H]2CC[C@]2(C)C(=O)CC[C@@H]32)C1 (stereo partly drawn) [compound 991022, (3β,5α)-3-Hydroxyandrostan-17-one (+)-2-(2,4,5,6-tetranitro-9-flourenylidene-aminooxy)proprionate] | 100 | 0 |  | 
